Measurements published in ChEMBL document CHEMBL3044717, “Synthesis and QSAR modeling 1-[3-methyl-2-(aryldiazenyl)-2H-aziren-2-yl]ethanones as potential antibacterial agents” (2013).

Tests used:
Assay type in all cases: functional
[1] = test system: Bacillus subtilis; assay: Antibacterial activity against Bacillus subtilis ATCC 6633 assessed as growth inhibition after 16-24 hr by two-fold serial dilution method
[2] = test system: Escherichia coli; assay: Antibacterial activity against Escherichia coli ATCC 13607 assessed as growth inhibition after 16-24 hr by two-fold serial dilution method
[3] = test system: Brevundimonas diminuta; assay: Antibacterial activity against Brevundimonas diminuta MTCC 3361 assessed as growth inhibition after 16-24 hr by two-fold serial dilution method
[4] = test system: Staphylococcus aureus; assay: Antibacterial activity against Staphylococcus aureus ATCC 2943 assessed as growth inhibition after 16-24 hr by two-fold serial dilution method

SMILES | -logMIC [1] | -logMIC [2] | -logMIC [3] | -logMIC [4]
CC(=O)C1(/N=N/c2ccc([N+](=O)[O-])cc2)N=C1C (configuration not stated) | 4.221 | 4.253 | 4.287 | 4.492
CC(=O)C1(/N=N/c2ccccc2)N=C1C (configuration not stated) | 4.026 | – | 4.024 | 4.032
CC(=O)C1(/N=N/c2ccccc2Cl)N=C1C (configuration not stated) | 4.348 | – | 4.354 | 4.317
CC(=O)C1(/N=N/c2cccc(Cl)c2)N=C1C (configuration not stated) | 4.315 | – | 4.325 | 4.324
CC(=O)C1(/N=N/c2ccc(Cl)cc2)N=C1C (configuration not stated) | 4.078 | – | 4.096 | 4.014
COc1ccccc1/N=N/C1(C(C)=O)N=C1C (configuration not stated) | 4.056 | – | 4.072 | 4.119
COc1cccc(/N=N/C2(C(C)=O)N=C2C)c1 (configuration not stated) | 4.366 | – | 4.377 | 4.328
CC(=O)C1(/N=N/c2ccccc2C)N=C1C (configuration not stated) | 4.378 | 4.378 | – | 4.339
CC(=O)C1(/N=N/c2cccc(C)c2)N=C1C (configuration not stated) | 4.213 | – | – | 4.298
CC(=O)C1(/N=N/c2ccc(C)cc2)N=C1C (configuration not stated) | 4.298 | – | – | 4.178
CC(=O)C1(/N=N/c2cccc(Br)c2)N=C1C (configuration not stated) | 4.425 | 4.441 | – | 4.457
CC(=O)C1(/N=N/c2ccc(Br)cc2)N=C1C (configuration not stated) | 4.401 | 4.414 | – | 4.433
CC(=O)C1(/N=N/c2cccc(C(=O)O)c2)N=C1C (configuration not stated) | 4.446 | 4.223 | 4.138 | 4.178
CC(=O)C1(/N=N/c2ccc(C(=O)O)cc2)N=C1C (configuration not stated) | 4.376 | 4.341 | 4.243 | 4.358
CC(=O)C1(/N=N/c2cccc([N+](=O)[O-])c2)N=C1C (configuration not stated) | 4.245 | 4.257 | 4.336 | 4.421
